According to patent publication US11701316B2, “Synergistic anti-inflammatory compositions” (The Procter & Gamble Company, priority 2020, dated 2023):
Several values for one entry are separate records, joined by “and”; a condition that tells them apart may be missing. Equal entries are not always repeated.

Columns and labels:
[1] = system: PGE2 release from keratinocytes; assay: Prostaglandin E2 (PGE2) assay in UVB-stressed TERT keratinocytes, normalized to ATP activity; type: cell-based, human; conditions: tKC
Source text: Inhibiting the Cell's Inflammation Response to a Stressor—Prostaglandin E2 (“PGE2”) Assay.
PGE2 is a hormone-like substance that is known to participate in modulation of inflammation. Cellular inflammation is associated with a variety of hair, skin and scalp conditions, and thus inhibiting PGE2 activation vis-à-vis cellular inflammation may help treat these types of hair, skin and scalp conditions.
TERT keratinocytes (“tKC”-tKCs are human keratinocytes which have been transfected with the human telomerase reverse transcriptase gene to immortalize the cells) are obtained from Jerry Shay, University of Texas, Southwestern and plated at 40,000 cells/well into 24-well plates in 1 ml/well volume. EpiLife Medium (Life Technologies cat # MEPICFPRF500) supplemented with keratinocyte growth supplement (Life technologies cat #S-001-5) is used as the assay media. The cells are grown to confluence/near confluence, (typically 24 hours after plating 40,000 cells/well in 24 well plate) and then subjected to 15 mJ/cm^2 UVB-stress (typically […] in BioSun). The test compositions (strobilurins, salicylic acid, strobilurins+salicylic acid, and positive control 10 uM idebenone) are added to replace the medium (EpiLife Medium with 0.1% final concentration of DMSO-briefly, 1000× stocks of actives and combinations made in 100% DMSO and diluted into Epilife media 1 to 1000), and the plates are incubated for 18-24 hours. The supernatant is removed from each well, and the cells are rinsed with 2 ml/well medium (without supplements). A Cell Titer-Glo assay (Promega cat # G7571; Madison Wis.) is used to measure ATP activity, is conducted on the cells for normalization. The supernatant is tested in a PGE2 assay (Prostaglandin E2 Assay kit from Cisbio Bioassays cat# 62P2APEB) according to the manufacturer's instructions. The PGE2 results are normalized to ATP activity. The PGE2 quantitation (pg/mL) from the supernatant is divided by the normalization factor (treatment ATP/control ATP).
Example Calculation to Compute PGE2 Inhibition by Strobilurin
Luminescence of vehicle control in ATP assay=704567
Luminescence of strobilurin treatment in ATP assay=678903
Normalization factor for strobilurin treatment=1.038
PGE2 quantitation for vehicle control=2458 pg/mL PGE2
PGE2 quantitation for strobilurin treatment=2347 pg/mL PGE2
Student's T-Test (equal variance, 2 sided) are used to calculate p-values between observed combinations and expected combinations with p-value <0.05 considered statistically significant. Expected combination values are calculated by adding the PGE2 inhibition values of strobilurins alone and salicylic acid alone. Synergy factor is simply the ratio of observed combination/expected combination. Synergy factors greater than 1.0 with a p-value <0.05 are deemed synergistic.

[2] = cited from earlier work
[3] = strobilurin alone, 1 × 10−5 w/v % (100:1), UVB
[4] = strobilurin alone, 1 × 10−6 w/v % (10:1), UVB
[5] = strobilurin alone, 1 × 10−7 w/v % (1:1), UVB
[6] = strobilurin alone, 1 × 10−7 w/v % (column 1:10), 15 mJ/cm2 UVB, 18-24 hours
[7] = strobilurin alone, 5 × 10−6 w/v % (50:1), UVB

Q: Which “% PGE2 Inhibition” value [1, 3] does the source give for `CO/C=C(/C(=O)OC)c1ccccc1Oc1cc(Oc2ccccc2C#N)ncn1` [azoxystrobin] here?
A: Its value is 58%.

Q: What about the “% PGE2 Inhibition” value [1, 4] of the same compound?
A: Its value is 22%.

Q: And the “% PGE2 Inhibition” value [1, 5]?
A: Its value is 8%.

Q: What about the “% PGE2 Inhibition” value [1, 6] of the same compound?
A: The value was 8%.

Q: And the “% PGE2 Inhibition” value [1, 7]?
A: The value was 37%.

Q: And the solubility in water [2]?
A: The solubility in water was “low”.

Q: For `CNC(=O)/C(=N/OC)c1ccccc1COc1cc(C)ccc1C` [dimoxystrobin], which “% PGE2 Inhibition” value [1, 3] is on record?
A: The value was 13%.

Q: What about the “% PGE2 Inhibition” value [1, 4] of the same compound?
A: Its value is 7%.

Q: And the “% PGE2 Inhibition” value [1, 5]?
A: The value was 4%.

Q: What about the “% PGE2 Inhibition” value [1, 6] of the same compound?
A: The value was 4%.

Q: What about the “% PGE2 Inhibition” value [1, 7] of the same compound?
A: Its value is 11%.

Q: With `CO/N=C(/C1=NOCCO1)c1ccccc1Oc1ncnc(Oc2ccccc2Cl)c1F` [fluoxastrobin] as the compound, how does the “% PGE2 Inhibition” value [1, 3] read?
A: Its value is 42%.

Q: And the “% PGE2 Inhibition” value [1, 4]?
A: The value was 9%.

Q: What about the “% PGE2 Inhibition” value [1, 5] of the same compound?
A: The value was 5%.

Q: What about the “% PGE2 Inhibition” value [1, 6] of the same compound?
A: The value was 5%.

Q: And the “% PGE2 Inhibition” value [1, 7]?
A: The value was 17%.

Q: With `CO/N=C(/C(=O)OC)c1ccccc1COc1ccccc1C` [kresoxim methyl] as the compound, how does the “% PGE2 Inhibition” value [1, 3] read?
A: Its value is 12%.

Q: What about the “% PGE2 Inhibition” value [1, 4] of the same compound?
A: Its value is 7%.

Q: What about the “% PGE2 Inhibition” value [1, 5] of the same compound?
A: The value was 5%.

Q: What about the “% PGE2 Inhibition” value [1, 6] of the same compound?
A: Its value is 5%.

Q: And the “% PGE2 Inhibition” value [1, 7]?
A: The value was 9%.

Q: Which “% PGE2 Inhibition” value [1, 3] does the source give for `CNC(=O)/C(=N/OC)c1ccccc1CO/N=C(C)/C(=N/OC)C(/C)=N/OC` [orysastrobin] here?
A: Its value is 36%.

Q: And the “% PGE2 Inhibition” value [1, 4]?
A: Its value is 12%.

Q: What about the “% PGE2 Inhibition” value [1, 5] of the same compound?
A: Its value is 6%.

Q: What about the “% PGE2 Inhibition” value [1, 6] of the same compound?
A: The value was 6%.

Q: And the “% PGE2 Inhibition” value [1, 7]?
A: Its value is 18%.

Q: With `CO/C=C(/C(=O)OC)c1ccccc1COc1cccc(C(F)(F)F)n1` [picoxystrobin] as the compound, how does the “% PGE2 Inhibition” value [1, 3] read?
A: Its value is 24%.

Q: And the “% PGE2 Inhibition” value [1, 4]?
A: Its value is 12%.

Q: And the “% PGE2 Inhibition” value [1, 5]?
A: The value was 6%.

Q: And the “% PGE2 Inhibition” value [1, 6]?
A: Its value is 6%.

Q: And the “% PGE2 Inhibition” value [1, 7]?
A: Its value is 18%.

Q: For `COC(=O)N(OC)c1ccccc1COc1ccn(-c2ccc(Cl)cc2)n1` [pyraclostrobin], which “% PGE2 Inhibition” value [1, 3] is on record?
A: The value was 70.4%.

Q: And the “% PGE2 Inhibition” value [1, 4]?
A: Its value is 46.0%.

Q: And the “% PGE2 Inhibition” value [1, 5]?
A: The value was 30.4%.

Q: And the “% PGE2 Inhibition” value [1, 6]?
A: Its value is 30.4%.

Q: And the “% PGE2 Inhibition” value [1, 7]?
A: The value was 55.3%.

Q: Which “% PGE2 Inhibition” value ([1]; salicylic acid alone, 1 × 10−6 (column 1:10), UVB) does the source give for `O=C(O)c1ccccc1O` [salicylic acid, reference compound] here?
A: The value was 32% and 31.4%.

Q: What about the “% PGE2 Inhibition” value ([1]; salicylic acid alone, 1 × 10−7 (1:1), UVB) of the same compound?
A: Its value is 18% and 16.2%.

Q: What about the “% PGE2 Inhibition” value ([1]; salicylic acid alone, 1 × 10−7 (10:1), UVB) of the same compound?
A: The value was 18% and 16.2%.

Q: And the “% PGE2 Inhibition” value ([1]; salicylic acid alone, 1 × 10−7 (50:1), UVB)?
A: The value was 18% and 16.2%.

Q: What about the “% PGE2 Inhibition” value ([1]; salicylic acid alone, 1 × 10−7 (100:1), UVB) of the same compound?
A: The value was 18% and 16.2%.

Q: Which “% PGE2 Inhibition” value [1, 3] does the source give for `CON=C(C(=O)OC)c1ccccc1CON=C(C)c1cccc(C(F)(F)F)c1` [trifloxystrobin] here?
A: The value was 8%.

Q: What about the “% PGE2 Inhibition” value [1, 4] of the same compound?
A: Its value is 7%.

Q: And the “% PGE2 Inhibition” value [1, 5]?
A: The value was 5%.

Q: What about the “% PGE2 Inhibition” value [1, 6] of the same compound?
A: The value was 5%.

Q: What about the “% PGE2 Inhibition” value [1, 7] of the same compound?
A: Its value is 8%.
